Laboratory results published in publication PMC9583322, “Vicinal Diaryl-Substituted Isoxazole and Pyrazole Derivatives with In Vitro Growth Inhibitory and In Vivo Antitumor Activity” (ACS Omega, 2022).
pIC50: −log10 of the molar value.

Key:
[1] = tested on: HepG2; experiment: SRB cytotoxicity assay; assay type: cell-based; settings: Homo sapiens, 72 h treatment
Procedure: (§1) HepG2, FOCUS, Hep3B, Mahlavu, Huh7, Hep40, and PLC-PRF-5 hepatocellular carcinoma cells; MCF-7, MDA-MB-231, MDA-MB-468, SKBR3, and ZR-75 breast cancer cells; and normal-like epithelial MCF-10A breast cells were cultured in low-glucose Dulbecco’s modified Eagle’s medium (DMEM) (Biological Industries-BI) supplemented with 10% fetal bovine serum (FBS) (Gibco/Thermo Fisher Scientific), 2 mM L-Glutamine (Gibco/Thermo Fisher Scientific), 100 Units/mL Penicillin/Streptomycin, and 0.1 mM non-essential amino acid (Gibco/Thermo Fisher Scientific). SNU475 hepatocellular carcinoma cells were maintained in RPMI (Biological Industries-BI) supplemented with 10% fetal bovine serum (FBS) (Gibco/Thermo Fisher Scientific), L-Glutamine (Gibco/Thermo Fisher Scientific), and 100 Units/mL Penicillin/Streptomycin, while ZR-75 breast cancer cells were cultured RPMI (Biological Industries-BI) supplemented with 10% fetal bovine serum (FBS) (Gibco/Thermo Fisher Scientific), 1× sodium pyruvate, and %4.5 glucose. Normal-like MCF-10A breast cells were sustained in DMEM/HAM’S F12 (Hyclone) supplemented with 10% fetal bovine serum (FBS) (Gibco/Thermo Fisher Scientific), EGF (20 ng/mL), Hydrocortisone ([…]), cholera toxin (100 ng/mL), insulin (10 μg/mL), and 100 Units/mL Penicillin/Streptomycin. The cells were cultivated at 37 °C in a humidified incubator under 5% CO2.
(§2) Mahlavu, FOCUS, SNU475 (1000 cell/well in 150 μL/well); Huh7, MCF7 (2500 cell/well in 150 μL/well); HepG2, Hep3B, SKBR3 (3000 cell/well in 150 μL/well); PLC-PRF-5, Hep40 (5000 cell/well in 150 μL/well); MDA-MB-231, MDA-MB-468, MCF10A (6000 cell/well in 150 μL/well); and ZR-75 (7500 cell/well in 150 μL/well) were cultured in 96-well plates and were inoculated in an incubator for 24 hours. The compounds were dissolved in dimethyl sulfoxide (DMSO) (Sigma, St Louis, MO) as a 20 mM stock solution. The treatment of cells with the compounds was done in a concentration range starting from 40 to 2.5 μM. The compounds which were below 2.5 μM were tested in a concentration range from 2.5 to 0.15 μM. End of the 72h compound treatment, the cells were fixed using 10% (v/v) trichloroacetic acid (MERCK) for an hour and washed with ddH2O, and left for air-drying. The fixed plates were stained with 50 μL of sulforhodamine B (SRB) solution (Sigma) at RT for 10 min. To remove unbound SRB dye, acetic acid was used to wash cells three times and left for drying. The protein-bound SRB was solubilized with 10 mM Tris-base (Sigma) and their absorbance was measured with a 96-well plate reader at 515 nm wavelength (ELx800, Biotek). The IC50 values of compounds were calculated in comparison with control group DMSO. Data with R^2 values larger than 0.9 are considered significant.

[2] = tested on: MDA-MB231; experiment: SRB cytotoxicity assay; assay type: cell-based; settings: Homo sapiens, MDA-MB-231, 72 h treatment
Procedure: as §1, §2

[3] = tested on: SNU475; experiment: SRB cytotoxicity assay; assay type: cell-based; settings: Homo sapiens, SNU-475, 72 h treatment
Procedure: as §1, §2

[4] = tested on: MCF10A; experiment: SRB cytotoxicity assay, immortalized normal breast epithelial cells; assay type: cell-based; settings: Homo sapiens, MCF-10A, 72 h treatment, non-tumorigenic immortalized breast epithelial cells
Procedure: HepG2, FOCUS, Hep3B, Mahlavu, Huh7, Hep40, and PLC-PRF-5 hepatocellular carcinoma cells; MCF-7, MDA-MB-231, MDA-MB-468, SKBR3, and ZR-75 breast cancer cells; and normal-like epithelial MCF-10A breast cells were cultured in low-glucose Dulbecco’s modified Eagle’s medium (DMEM) (Biological Industries-BI) supplemented with 10% fetal bovine serum (FBS) (Gibco/Thermo Fisher Scientific), 2 mM L-Glutamine (Gibco/Thermo Fisher Scientific), 100 Units/mL Penicillin/Streptomycin, and 0.1 mM non-essential amino acid (Gibco/Thermo Fisher Scientific). […]
Mahlavu, FOCUS, SNU475 (1000 cell/well in 150 μL/well); Huh7, MCF7 (2500 cell/well in 150 μL/well); HepG2, Hep3B, SKBR3 (3000 cell/well in 150 μL/well); PLC-PRF-5, Hep40 (5000 cell/well in 150 μL/well); MDA-MB-231, MDA-MB-468, MCF10A (6000 cell/well in 150 μL/well); and ZR-75 (7500 cell/well in 150 μL/well) were cultured in 96-well plates and were inoculated in an incubator for 24 hours. […] The protein-bound SRB was solubilized with 10 mM Tris-base (Sigma) and their absorbance was measured with a 96-well plate reader at 515 nm wavelength (ELx800, Biotek). The IC50 values of compounds were calculated in comparison with control group DMSO. […]

[5] = tested on: MCF10A; experiment: Real-time cell electronic sensing (RT-CES); assay type: cell-based, human; settings: 2.5, 5, 10 μM; immortalized normal breast epithelial cells
Procedure: (§3) To monitor the real-time cell growth of cells and cytotoxicity of compounds, the xCELLigence system (Roche Applied Sciences) was used. The cells were seeded onto 96-well E-Plate Mahlavu (1500 cell/well), MCF7, Huh7 (2500 cell/well), MDA-MB-231 (5000 cell/well), and MCF10A (6000 cell/well) in 100 μL of the medium/well. To examine the proliferation of cells, the cellular growth was monitored as cell index (CI) every 30 min for 24 h. When the cells were in a log growth phase, treatment with compounds 11 and 85 in 2.5, 5, and 10 μM concentrations was done, the CI values were recorded every 10 min for 24 h for controlling fast drug response and then every 30 min for the remaining 48 h for long-term dose response. After 72 h of incubation, the cellular growth ratios were calculated by CIDrug/CIDMSO.

[6] = tested on: Mahlavu, Huh7, MDA-MB-231, and MCF-7; experiment: Real-time cell electronic sensing (RT-CES); assay type: cell-based, human; settings: 2.5, 5, 10 μM; compared to control (DMSO)
Procedure: as §3

[7] = tested on: Mahlavu, Huh7, MCF7, and MDA-MB-231 cells; experiment: Hoechst nuclear staining for cell death; assay type: cell-based, human; settings: IC100 concentrations, 48 h
Procedure: Mahlavu, Huh7, MCF7, and MDA-MB-231 cells were cultured onto cover slides in six-well plates for 24 h according to their cell growth rate. […] The 1× PBS was used to wash the cells three times, and the cells were fixed with 100% ice-cold methanol. Then, the cells were stained with 1 μg/mL Hoechst (#33258, Sigma). The cells were analyzed under the fluorescence microscope (Nikon Eclipse 50i).

[8] = tested on: Mahlavu, Huh7, MCF7, and MDA-MB-231; experiment: Annexin V flow cytometry; assay type: cell-based, human; settings: 5 μM; compared to the control group
Procedure: Mahlavu, Huh7, MCF7, and MDA-MB-231 were seeded onto six-well plates. After 24 h, the cells were incubated with 5 μM compounds 11 and 85 by keeping DMSO as a negative control. […] PI and Annexin V dyes were added onto cell lysates for 15 min at room temperature in the dark to stain the cells for detecting apoptotic cell populations. The cells were analyzed by flow cytometry.

[9] = tested on: PARP; experiment: PARP cleavage western blotting; assay type: cell-based, human; settings: 5 μM, 48 h; MCF7, MDA-MB-231, Mahlavu; except for 11 treated MCF7 and Huh7 cells
Procedure: Cells were treated for 5 μM compounds 11 and 85 or control (DMSO). The treated cells were collected with a scraper at end of 48 h incubation and lysates were prepared. Protein concentration was calculated with a BCA assay. The protein levels were analyzed using protein electrophoresis according to the manufacturer’s protocol for near-infrared (NIR) Western Blot analysis (Mini-PROTEAN Tetra Cell Systems, Bio-Rad). The samples (40 μg /well) were loaded onto TGX precast gels, and protein transfer from gel to an LF-PVDF membrane was done using Trans-Blot Turbo System (Bio-Rad). Primary antibodies (PARP, CST, #9532S) and Calnexin (CST, #2679) and secondary antibodies IRDye 680RD Goat Anti Rabbit (Li-Cor, # 92668071) and IRDye- 800CW Goat Anti Rabbit (Licor, # 926e32211) were used for western blotting, and the proteins were monitored in fluorescence system using Odyssey CLx- LICOR imaging system.[32]

SMILES	pIC50 [1]	pIC50 [2]	pIC50 [3]	pIC50 [4]	Real-time cell growth response, MCF10A [5]	Real-time cell growth response, cancer cell lines [6]	Nuclear morphology by Hoechst staining [7]	percentage of apoptotic populations (Annexin V) [8]	PARP cleavage [9]
Cc1ccccc1COc1ccc(-c2noc(C)c2-c2ccc(Cl)cc2)cc1 [compound 11, 4-(4-Chlorophenyl)-5-methyl-3-(4-((2-methylbenzyl)oxy)phenyl)isoxazole]	5.68	5.70	5.77	4.92	no difference in the growth	inhibition in the growth	Apoptotic bodies were detectable	increased	increase in PARP cleavage
Cc1ccccc1COc1ccc(-c2ccnn2-c2ccc(Cl)cc2)cc1 [compound 85, 1-(4-Chlorophenyl)-5-(4-((2-methylbenzyl)oxy)phenyl)-1H-pyrazole]	5.85	6.05	5.82	5.12	no difference in the growth	inhibition in the growth	Apoptotic bodies were detectable	increased	increase in PARP cleavage
